Measured values from paper PMC6150365, “Simultaneous Determination of Seven Components in Rat Plasma by the UPLC-MS/MS Method and Application of Pharmacokinetic Studies to SimiaoYong’an Decoction” (Molecules : A Journal of Synthetic Chemistry and Natural …, 2017).

Assay: in vivo
Settings: male, Sprague-Dawley, rat, po; for MRT last: MRT(0–t); for MRT inf: MRT(0–∞); for half-life: t1/2
Method: Pieces of LJ, SN, AS and GU were weighed according to the proportion of 3:3:2:1 with appropriate amounts. The mixed pieces were crushed and decocted two times (60 min each time) with water (1:10 w/v) after being soaked for 60 min. The decoctions were then combined and condensed to the concentration of 0.5 g/mL, after which 95% ethanol was slowly added to the concentrate until a final ethanol concentration of 70% was reached. The SYD solution was set at room temperature overnight and then was filtered. The solvent was recovered, and the residue was dried under reduced pressure. A certain amount of the water extract of SYD was weighed and then dissolved with purified water for intragastric (oral) administration solution. The single herbs and different combination groups such as LJ, SN, AS, GU, LJ + SN, LJ + AS, LJ + GU, SN + AS, SN + GU, AS + GU, LJ + SN + AS, LJ + SN + GU, LJ + AS + GU and SN + AS + GU were prepared according to the procedure of SYD.
Male Sprague-Dawley (SD) rats (body weight 250 ± 10 g) were supplied by the SPF (Beijing) Biotechnology Co., Ltd. (Certificate No.: SCXK 2016-0002, Beijing, China). The animals were maintained in controlled conditions (temperature 20–25 °C, relative humidity 55–60% and 12-h light/12-h dark cycle) with free access to standard laboratory food and water for seven days of acclimation and then fasted for 12 h before each experiment but allowed to drink freely during this time.
Ninety male SD rats were randomly separated into 15 groups and administered a dosage of extract via gastric gavage once per day; detailed information about the oral daily dose of SYD extract and the corresponding single and combined TCMs (LJ, SN, AS, GU, LJ + SN, LJ + AS, LJ + GU, SN + AS, SN + GU, AS + GU, LJ + SN + AS, LJ + SN + GU, LJ + AS + GU, SN + AS + GU and SYD) is listed in Table 4.
Each plasma sample (200 μL) with 50 μL IS solution added was spiked into 100 μL 1% formic acid distilled water solution and then vortexed for 1 min. Protein was precipitated by adding 600 μL of methanol to the mixture. After being vortexed and sonicated, the samples were centrifuged at 25,000 r/min, 4 °C for 10 min. The supernatant of each sample was transferred to a new 2-mL centrifuge tube and evaporated to dryness by N2 at 40 °C. Finally, the residue was dissolved in 100 μL methanol–water (1:1, v/v), followed by centrifugation at 30,000 r/min, 4 °C for 10 min, and 10-μL supernatant aliquots were injected into the UPLC-MS/MS system for analysis.
The SYD was decomposed into 15 groups of compatibility combinations (LJ, SN, AS, GU, LJ + SN, LJ + AS, LJ + GU, SN + AS, SN + GU, AS + GU, LJ + SN + AS, LJ + SN + GU, LJ + AS + GU, SN + AS + GU and SYD). The 15 combinations were weighed according to the proportion of 3:3:2:1 with appropriate amounts and prepared by the method described in “Section 3.2”. Six male SD rats (body weight 250 ± 10 g) of each compatibility group were used in the pharmacokinetic study. After 12-h fast, rats of the different groups were orally administered the respective extract dissolved in saline (Table 4). Venous blood (0.45 mL) was obtained from the orbit vein and collected in heparin-pretreated polypropylene centrifuge tubes at 0.083 h, 0.17 h, 0.25 h, 0.50 h, 0.75 h, 1.0 h, 1.5 h, 2.0 h, 3.0 h, 4.0 h, 6.0 h, 8.0, 12 h and 24 h post-dose. The plasma was separated by centrifugation at 8000 r/min for 10 min and then stored at −20 °C until analysis. The amount of each analyte in the plasma was estimated by UPLC-MS/MS analysis as described in Section 3.5.
Non-compartmental methods using Phoenix WinNonlin 7.0 software provided by the Beijing University of Chinese Medicine were used to analyze plasma concentration versus time profiles and to estimate the following pharmacokinetic parameters: terminal elimination half-lives (t1/2), area under the plasma concentration versus time curve from zero to last sampling time (AUC), and the mean residence time (MRT).

## C=C[C@H]1[C@H](O[C@@H]2O[C@H](CO)[C@@H](O)[C@H](O)[C@H]2O)OC=C2C(=O)OCC[C@H]21 [Sweroside, sweroside]
2.15 g/kg
  AUC(0-t): 6900 ± 2660 ng·h/mL
  AUC(0-inf): 7860 ± 4080 ng·h/mL
  Cmax: 2920 ± 1770 ng/mL
  MRT last: 4.46 ± 1.2 h
  MRT inf: 7.5 ± 5.21 h
  Tmax: 0.96 ± 0.58 h
  half-life: 7.39 ± 6.33 h
8.25 g/kg
  AUC(0-t): 4490 ± 280 ng·h/mL
  AUC(0-inf): 4530 ± 290 ng·h/mL
  Cmax: 1970 ± 700 ng/mL
  MRT last: 3.3 ± 0.39 h
  MRT inf: 3.53 ± 0.29 h
  Tmax: 1.33 ± 0.49 h
  half-life: 4.14 ± 1.46 h
